Literature values in patent publication US20140348873A1, “Urea-Silicone Gel for Hyperkeratosis Treatment” (PROFESSIONAL COMPOUNDING CENTERS OF AMERICA, priority 2013, published 2014).

Details: general background statement; no experiment described

## NC(N)=O [Urea]
  water content of the skin, level reached with urea: 97.8%
